Assay results published in patent publication US9149034B2, “Agrochemical formulations comprising co-polymers based on diisocyanates” (BASF SE, priority 2006, dated 2015).

Tests used:
[1] = test system: Alteria, ALTESO P6 (Bayer); test: Test with pathogenes: tomatoe plants in Hoagland solution with boscalid or boscalid/polymer, infested with fungus; format: in vivo; conditions: for Infestation Rating: Table 3 experiment, untreated = 100%; for Rating (infestation): Table 4 experiment
Excerpt: To test the polymers with the actual pathogenes, tomatoe plants were directly grown in hoagland solution. Hoagland solution consists of the following ingredients 0.25 v % of 1M KNO3 solution in water, 0.1 v % of 1M MgSO4 solution in water, 0.05 v % of 1M KH2PO4 solution in water, 0.25 v % 1M Ca(NO3)2) solution in water, 0.05 v % of a trace solution consisting of 2.86 g/l H3BO3, 1.81 g/l MnCl2*4H2O, 0.22 g/l ZnSO4*7H2O, 0.08 g/l CuSO4*5H2O, 0.016 g/l MoO3 in water, 0.075 v % Sequestrene 138 Fe consisting of 30 g/l sodium ferric ethylenediamine di-(o-hydroxyphenylacetate) in water, 99.225 v % water sterilized and pH adjusted to 6-6.5 with NaOH.
After 16 days the plants were transfered to containers with 240 ml boscalid or boscalid/polymer (the ratio boscalid/polymer is 1:1 per weight) solutions (1.3, 0.43, 0.14 and 0.05 ppm) in Hoagland solution containing 0.8 vol % acetone. 6 days after the ai application the plants were infested with fungus (Alteria, ALTESO P6 (Bayer)). After 5 additional days the infestation was rated (column “Infestation Rating”) and plants that had not been treated with ai were used as reference for 100% infestation.
Two separate experiments were performed. In one test, polymers A and B were tested (see table 3), in the other experiment, polymers C and F were tested (see table 4).

[2] = Root uptake test with radioactively marked boscalid, drench of wheat plants in vermiculite; conditions: in vivo, 120 h
Description: To test the root systemicity of the ai, radioactively marked boscalid (prepared in analogy to EP 0545099 based on ^14C marked pyridin) was used. For the tests wheat plants in vermiculite were drenched with boscalid/polymer solutions in water/acetone mixtures. As reference boscalid solutions in water/acetone mixtures without polymers were used [25 μl cold active solution (10000 ppm stock solution in acetone), 20 μl hot active solution (0.1 ppm in acetone, 1 μl corresponds to ˜22000 Bcq), 25 μl acetone and 25 μl polymer solution (10000 ppm stock solution in water) were mixed and refilled with water to 10 ml. After 48 and 120 hours leafs were cut from the plant and dissolved in Soluene 350 (60-80% toluene, 20-40% dodecyl(dimethyl)(tetradecyl)ammonium hydroxide, 2.5-10% methanol). Afterwards the radioactivity in the plant material was measured. High radioactivity in the plant material corresponds to high active ingredient uptake.

[3] = Leaf uptake of radioactively marked boscalid applied dropwise to leaves of wheat plants; conditions: in vivo, 168 h
Description: To test the leaf uptake with polymers water/DMF solutions with radioactively marked boscalid (1 μl cold active solution (10000 ppm solution in DMF), 10 μl hot active solution (0.1 ppm in DMF, ˜2000000 counts/μl), 9 μl polymer solution (1000 ppm solution in water) and 80 μl DMF) were applied dropwise to the leaves of a wheat plants (10 drops per leap. After 48 and 168 hours respectively. The leaves were cut off after the respective time and the excess active on the leaf surface eliminated by stripping the leaf with a cellulose acetate film. The leaves were then dissolved with Soluene 350 to determine the absolute amount of active ingredient that was taken up into the plant. As reference the active was applied in water/DMF solution without polymer.

[4] = 0.05 ppm active (or polymer/active 1:1)
[5] = 0.14 ppm active (or polymer/active 1:1)
[6] = 0.43 ppm active (or polymer/active 1:1)

## O=C(Nc1ccccc1-c1ccc(Cl)cc1)c1cccnc1Cl [Reference without polymer, boscalid]
[1]; [4]
  Infestation Rating: 77%
  Rating (infestation): 53%
[1]; [5]
  Infestation Rating: 60%
  Rating (infestation): 47%
[1]; [6]
  Infestation Rating: 13%
  Rating (infestation): 17%
[1]; 1.3 ppm active (or polymer/active 1:1), rated 5 days after infestation
  Infestation Rating: 1%
[1]; 1.3 ppm active (or polymer/active 1:1)
  Rating (infestation): 0%
[2]
  Uptake (radioactivity in leaf material, active ingredient uptake): 219 Bcq
[3]
  Uptake [% applied]: 1.3 % applied
